Experimental data: patent US20090054417A1, “COMPOUNDS AND COMPOSITIONS AS MODULATORS OF STEROID HORMONE NUCLEAR RECEPTORS” (IRM LLC, priority 2004, published 2009)

Assays:
Type in all cases: cell-based
GR = target: T1, GR (Homo sapiens, UniProt P04150); assay: Functional assay of glucocorticoid receptor antagonism (Gal4-GR-LBD luciferase reporter, COS-7 cells, dexamethasone-stimulated); conditions: antagonism of GR trans-activation induced by 10 nM dexamethasone
T1 construct: expressed in transfected cells; host or cells: COS-7 cells
T1 sequence (P04150 541-777): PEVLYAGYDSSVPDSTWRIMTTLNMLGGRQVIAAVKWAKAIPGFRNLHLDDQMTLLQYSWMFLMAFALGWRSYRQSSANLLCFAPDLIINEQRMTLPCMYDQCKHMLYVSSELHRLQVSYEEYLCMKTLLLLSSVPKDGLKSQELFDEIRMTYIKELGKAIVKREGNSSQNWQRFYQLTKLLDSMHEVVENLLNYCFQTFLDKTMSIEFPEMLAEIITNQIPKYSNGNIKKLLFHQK
Method: The GR antagonist activity of the compounds is determined in a mammalian two hybrid reporter system. The ligand binding domain of GR (GR-LBD, sequence encoding amino acid 541-778) is fused to the DNA binding domain of the yeast Gal4 gene. The GR gene is cloned from a human lung cDNA library with PCR.
The assay is performed in 384 well plates: COS-7 cells (ATCC) are transfected with expression vectors for Gal-4-GR-LBD and a luciferase reporter vector containing Gal4 binding sequence (pG5-Luc). Cells are plated in 384 well plates immediately after transfection (approximately 8000 cells/well in 50 μl medium). The medium is supplemented with 3% charcoal-dextran treated fetal bovine serum (Hyclone). Twenty four hours after transfection, compounds prepared in DMSO are transferred to the cells. The cells are then stimulated with 10 nM final concentration of dexamethasone (Sigma) and incubated at 37° C. for another 24 hours before the luciferase activity is assayed with 20 μl of Bright-Glo (Promega) using a luminometer (CLIPR). The expression of luciferase is used as an indicator of dexamethasone-induced GR trans-activation. Each compound is tested in duplicates with a 12-concentration titration. IC50 values (defined as the concentration of test compound required to antagonize 50% of dexamethasone-induced GR activity) are determined from the dose-response curve.

AR = target: T2, AR (Homo sapiens, UniProt P10275); assay: Functional assay of androgen receptor antagonism (MMTV luciferase reporter in MDA-kb2 cells, dihydrotestosterone-stimulated); conditions: antagonism of AR trans-activation induced by 0.3 nM dihydrotestosterone
T2 sequence (P10275 1-920 Q868H): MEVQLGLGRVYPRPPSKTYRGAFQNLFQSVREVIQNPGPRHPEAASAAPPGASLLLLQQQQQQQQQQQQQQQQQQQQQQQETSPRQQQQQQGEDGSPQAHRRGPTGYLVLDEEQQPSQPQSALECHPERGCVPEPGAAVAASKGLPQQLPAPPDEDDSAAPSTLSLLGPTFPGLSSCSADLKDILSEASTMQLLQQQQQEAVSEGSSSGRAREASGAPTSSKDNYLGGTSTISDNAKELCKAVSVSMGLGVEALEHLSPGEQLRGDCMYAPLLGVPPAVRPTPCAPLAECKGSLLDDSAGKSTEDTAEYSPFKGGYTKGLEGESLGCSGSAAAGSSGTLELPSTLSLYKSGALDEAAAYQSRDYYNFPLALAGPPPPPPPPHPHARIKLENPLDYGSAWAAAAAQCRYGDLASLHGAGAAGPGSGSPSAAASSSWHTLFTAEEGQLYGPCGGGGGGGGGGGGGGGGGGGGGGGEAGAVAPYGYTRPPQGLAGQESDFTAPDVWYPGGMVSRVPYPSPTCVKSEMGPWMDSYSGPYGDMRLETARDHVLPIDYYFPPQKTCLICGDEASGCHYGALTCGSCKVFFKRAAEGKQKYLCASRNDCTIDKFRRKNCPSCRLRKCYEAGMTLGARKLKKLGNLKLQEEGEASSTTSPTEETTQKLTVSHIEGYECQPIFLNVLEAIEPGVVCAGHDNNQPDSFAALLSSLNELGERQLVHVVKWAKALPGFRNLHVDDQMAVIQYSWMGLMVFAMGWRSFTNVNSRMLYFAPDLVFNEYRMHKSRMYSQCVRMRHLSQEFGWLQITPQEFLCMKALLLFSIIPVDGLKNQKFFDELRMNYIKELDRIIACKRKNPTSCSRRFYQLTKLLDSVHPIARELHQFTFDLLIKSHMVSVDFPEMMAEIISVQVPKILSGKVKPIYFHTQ
Method: The AR antagonist activity of the compounds is determined with the MDA-Kb2 cell line (ATCC), which stably expresses the MMTV luciferase reporter. The MMTV promoter is a mouse mammary tumor virus promoter that contains androgen receptor response elements. […] Upon stimulation with AR ligands, such as dihydrotestosterone, the MMTV luciferase reporter can be activated.
The assay is performed in 384 well plates. Briefly, MDA-kb2 cells are plated in 384 well plates at a density of approximately 2.4×10^4 cells/well in 50 μl medium. The medium is supplemented with 5% charcoal-dextran treated fetal bovine serum (Hyclone). Twenty four hours later, compounds prepared in DMSO are transferred to the cells. The cells are then stimulated with 0.3 nM final concentration of dihydrotestosterone (Sigma) and incubated at 37° C. for another 24 hours before the luciferase activity is assayed with 20 μl of Bright-Glo (Promega) using a luminometer (CLIPR). The expression of luciferase is used as an indicator of dihydrotestosterone-induced AR trans-activation. Each compound is tested in duplicates with a 12-concentration titration. IC50 values (defined as the concentration of test compound required to antagonize 50% of dihydrotestosterone-induced AR activity) are determined from the dose-response curve.

PR = target: T3, PR (Homo sapiens, UniProt P06401); assay: Functional assay of progesterone receptor antagonism (progesterone-induced alkaline phosphatase activity in T-47D cells); conditions: antagonism of PR activity induced by 3 nM progesterone
T3 sequence (P06401 1-933): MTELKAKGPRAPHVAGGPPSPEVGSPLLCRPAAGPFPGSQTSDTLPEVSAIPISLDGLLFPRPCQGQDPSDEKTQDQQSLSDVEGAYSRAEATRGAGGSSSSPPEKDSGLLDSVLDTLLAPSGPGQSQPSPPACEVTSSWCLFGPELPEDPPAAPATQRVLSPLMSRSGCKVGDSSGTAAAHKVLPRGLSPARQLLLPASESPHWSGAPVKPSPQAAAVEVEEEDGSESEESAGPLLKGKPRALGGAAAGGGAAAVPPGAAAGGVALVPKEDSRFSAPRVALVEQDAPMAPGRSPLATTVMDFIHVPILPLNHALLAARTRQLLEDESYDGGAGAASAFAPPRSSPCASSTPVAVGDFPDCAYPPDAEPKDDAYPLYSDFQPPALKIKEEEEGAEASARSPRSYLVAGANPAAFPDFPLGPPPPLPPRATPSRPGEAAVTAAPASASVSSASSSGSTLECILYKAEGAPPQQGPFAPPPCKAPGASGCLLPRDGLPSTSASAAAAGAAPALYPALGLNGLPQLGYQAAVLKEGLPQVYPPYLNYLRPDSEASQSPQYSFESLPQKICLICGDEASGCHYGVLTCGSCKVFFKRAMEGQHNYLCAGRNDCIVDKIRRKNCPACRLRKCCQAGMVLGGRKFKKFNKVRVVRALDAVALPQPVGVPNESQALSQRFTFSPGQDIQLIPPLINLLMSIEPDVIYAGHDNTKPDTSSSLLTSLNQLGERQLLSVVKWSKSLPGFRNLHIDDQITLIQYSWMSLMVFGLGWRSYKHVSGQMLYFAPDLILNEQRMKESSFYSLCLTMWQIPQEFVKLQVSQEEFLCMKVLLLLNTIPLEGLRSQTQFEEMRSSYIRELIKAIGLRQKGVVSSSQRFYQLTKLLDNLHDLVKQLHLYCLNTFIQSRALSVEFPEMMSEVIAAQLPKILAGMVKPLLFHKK
Method: The PR antagonist activity of the compounds is determined by progesterone-induced alkaline phosphatase activity in the T-47D cell line (ATCC). In the T-47D breast cancer cells, progesterone specifically induces de novo synthesis of a membrane-associated alkaline phosphatase enzyme in a time and dose-dependent manner (Di Lorenzo et al., Cancer Research, 51: 4470-4475 (1991)). The alkaline phosphatase enzymatic activity can be measured with a chemiluminescent substrate, such as CSPD® (Applied Biosystems). The assay is performed in 384 well plates. Briefly, T-47D cells are plated in 384 well plates at a density of approximately 2.5×10^4 cells/well in 50 μl medium supplemented with 10% fetal bovine serum. Twenty four hours later, the medium is aspirated. New medium that is free of phenol red and serum is added to the cells. Compounds prepared in DMSO are transferred to the cells. The cells are then stimulated with 3 nM final concentration of progesterone (Sigma) and incubated at 37° C. for another 24 hours before the alkaline phosphatase is assayed with 25 μl of CSPD® (Applied Biosystems) using a luminometer (CLIPR). The expression of alkaline phosphatase is used as an indicator of progesterone-induced PR trans-activation. Each compound is tested in duplicates with a 12-concentration titration. […]

MR = target: T4, MR (Homo sapiens, UniProt P08235); assay: Functional assay of mineralocorticoid receptor antagonism (mammalian two hybrid luciferase reporter, 293T cells, aldosterone-stimulated); conditions: antagonism of MR trans-activation induced by 0.4 nM aldosterone
T4 construct: expressed in transfected cells; host or cells: 293T cells
T4 sequence (P08235 672-984): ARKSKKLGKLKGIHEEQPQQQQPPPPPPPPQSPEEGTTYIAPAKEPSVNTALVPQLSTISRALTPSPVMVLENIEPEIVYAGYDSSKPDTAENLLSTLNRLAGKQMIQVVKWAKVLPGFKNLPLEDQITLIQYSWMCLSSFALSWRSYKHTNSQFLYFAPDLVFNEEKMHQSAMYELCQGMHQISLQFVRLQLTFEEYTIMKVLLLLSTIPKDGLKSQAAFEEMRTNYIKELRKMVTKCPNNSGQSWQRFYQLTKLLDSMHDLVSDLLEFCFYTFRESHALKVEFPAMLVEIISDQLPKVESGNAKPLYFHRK
Method: The MR antagonist activity of the compounds is determined in a mammalian two hybrid reporter system. The N-terminus of MR (MR-NT, sequence coding amino acid 1-597) is fused to the activation domain of the VP16 gene. The ligand binding domain of MR (MR-LBD, sequence encoding amino acid 672-984) is fused to the DNA binding domain of the yeast Gal4 gene. The MR gene is cloned from a human kidney cDNA library with PCR.
The assay is performed in 384 well plates. Briefly, 293T cells (ATCC) are transfected with expression vectors for Gal-4-MR-LBD and VP16-MR NT, and a luciferase reporter vector containing Gal4 binding sequence (pG5-Luc). Cells are plated in 384 well plates immediately after transfection (approximately 3×10^4 cells/well in 50 μl medium). The medium is supplemented with 3% charcoal-dextran treated fetal bovine serum (Hyclone). Twenty four hours after transfection, compounds prepared in DMSO are transferred to the cells. The cells are then stimulated with 0.4 nM final concentration of aldosterone (Acros) and incubated at 37° C. for another 24 hours before the luciferase activity is assayed with 20 μl of Bright-Glo (Promega) using a luminometer (CLIPR). The expression of luciferase is used as an indicator of aldosterone-induced MR trans-activation. Each compound is tested in duplicates with 12-concentration titration. IC50 values (defined as the concentration of test compound required to antagonize 50% of aldosterone-induced MR activity) are determined from the dose-response curve.

SMILES	IC50 (GR) [nM]	IC50 (AR) [nM]	IC50 (PR) [nM]	IC50 (MR) [nM]
Cc1c(-c2csc(-c3ccccc3C(F)(F)F)n2)ccc2c1NC(=O)CO2 [5-Methyl-6-[2-(2-trifluoromethyl-phenyl)-thiazol-4-yl]-4H-benzo[1,4]oxazin-3-one]	> 10000	52	> 20000	162
Cc1cccc(-c2ccc3c(c2C)NC(=O)CO3)c1 [5-Methyl-6-m-tolyl-4H-benzo[1,4]oxazin-3-one]			22	47
Cc1ccccc1/C=C/c1ccc2c(c1)NC(=O)CO2 [6-(2-o-tolyl-vinyl)-4H-benzo[1,4]oxazin-3-one]		138		54
CC(=O)Oc1ccc(CCc2cc(C)c3c(c2)NC(=O)CO3)c(C)c1 [Acetic acid 3-methyl-4-[2-(8-methyl-3-oxo-3,4-dihydro-2H-benzo[1,4]oxazin-6-yl)-ethyl]-phenyl ester]	210			1.3
CC(=O)Oc1ccc(CCc2ccc3c(c2)NC(=O)CO3)c(C)c1 [acetic acid 3-methyl-4-[2-(3-oxo-3,4-dihydro-2H-benzo[1,4]oxazin-6-yl)-ethyl]-phenyl ester]				< 2
